Columns and labels:
[1] = target: T1, Fatty-acid amide hydrolase 1 (Rattus norvegicus, UniProt P97612); assay: Inhibition of FAAH in Sprague-Dawley rat brain homogenates preincubated for 10 mins followed by addition of substrate measured after 30 mins by liquid scintillation counting; format: tissue-based
T1 sequence (P97612 whole entry): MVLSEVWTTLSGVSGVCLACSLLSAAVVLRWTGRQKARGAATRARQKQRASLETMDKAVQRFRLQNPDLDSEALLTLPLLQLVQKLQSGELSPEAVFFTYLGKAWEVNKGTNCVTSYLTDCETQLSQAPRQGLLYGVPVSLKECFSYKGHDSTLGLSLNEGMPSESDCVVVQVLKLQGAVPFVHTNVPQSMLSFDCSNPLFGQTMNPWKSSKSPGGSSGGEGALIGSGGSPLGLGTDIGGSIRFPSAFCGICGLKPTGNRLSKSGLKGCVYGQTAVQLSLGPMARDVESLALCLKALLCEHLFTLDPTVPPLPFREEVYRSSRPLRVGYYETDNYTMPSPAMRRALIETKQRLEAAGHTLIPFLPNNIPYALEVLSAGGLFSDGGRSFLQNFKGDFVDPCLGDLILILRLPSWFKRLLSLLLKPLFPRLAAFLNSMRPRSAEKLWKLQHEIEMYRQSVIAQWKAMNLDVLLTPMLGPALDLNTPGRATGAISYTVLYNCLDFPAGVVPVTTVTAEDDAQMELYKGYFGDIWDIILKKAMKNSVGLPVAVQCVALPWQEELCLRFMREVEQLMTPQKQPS

[2] = target: T2, Prostaglandin G/H synthase 2 (Homo sapiens, UniProt P35354); assay: Inhibition of recombinant human COX2 assessed as production of PGF2-alpha preincubated with compound followed by the addition of 5 uM arachidonic acid as substrate by enzyme immunoassay
T2 sequence (P35354 whole entry): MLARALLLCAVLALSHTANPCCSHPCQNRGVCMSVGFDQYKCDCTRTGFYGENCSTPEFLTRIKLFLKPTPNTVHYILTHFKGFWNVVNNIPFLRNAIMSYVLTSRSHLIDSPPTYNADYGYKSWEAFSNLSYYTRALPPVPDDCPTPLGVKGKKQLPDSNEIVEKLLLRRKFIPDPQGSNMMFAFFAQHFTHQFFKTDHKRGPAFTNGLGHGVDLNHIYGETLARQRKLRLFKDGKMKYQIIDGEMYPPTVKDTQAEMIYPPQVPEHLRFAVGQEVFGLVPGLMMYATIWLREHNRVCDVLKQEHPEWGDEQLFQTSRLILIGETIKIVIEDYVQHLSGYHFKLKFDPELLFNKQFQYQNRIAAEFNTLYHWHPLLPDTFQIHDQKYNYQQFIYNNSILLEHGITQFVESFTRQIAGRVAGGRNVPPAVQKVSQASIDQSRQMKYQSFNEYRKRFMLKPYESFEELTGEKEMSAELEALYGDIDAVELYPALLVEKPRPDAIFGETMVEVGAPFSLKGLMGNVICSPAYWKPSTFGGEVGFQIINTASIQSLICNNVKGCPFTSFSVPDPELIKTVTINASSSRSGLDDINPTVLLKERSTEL

[3] = target: T3, Prostaglandin G/H synthase 1 (Ovis aries, UniProt P05979); assay: Inhibition of ovine COX1 assessed as production of PGF2-alpha preincubated with compound followed by the addition of 5 uM arachidonic acid as substrate by enzyme immunoassay
T3 sequence (P05979 whole entry): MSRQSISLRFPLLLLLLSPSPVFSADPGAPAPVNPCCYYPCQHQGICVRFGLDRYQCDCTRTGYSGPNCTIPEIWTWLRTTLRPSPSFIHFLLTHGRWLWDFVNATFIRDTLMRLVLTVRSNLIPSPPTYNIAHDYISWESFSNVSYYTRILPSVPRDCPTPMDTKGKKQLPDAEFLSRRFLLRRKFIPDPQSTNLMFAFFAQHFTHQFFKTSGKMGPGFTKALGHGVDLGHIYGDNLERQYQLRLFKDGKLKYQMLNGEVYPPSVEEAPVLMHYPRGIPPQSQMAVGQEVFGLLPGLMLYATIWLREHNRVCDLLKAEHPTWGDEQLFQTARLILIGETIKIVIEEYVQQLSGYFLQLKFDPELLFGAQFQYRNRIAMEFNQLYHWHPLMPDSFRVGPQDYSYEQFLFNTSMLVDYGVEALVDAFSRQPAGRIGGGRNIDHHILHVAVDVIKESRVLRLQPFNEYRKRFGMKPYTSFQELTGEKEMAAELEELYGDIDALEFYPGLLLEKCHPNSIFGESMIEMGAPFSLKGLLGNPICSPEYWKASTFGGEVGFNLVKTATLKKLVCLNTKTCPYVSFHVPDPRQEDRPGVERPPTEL

Compound	IC50 [1] [µM]	IC50 [2] [µM]	IC50 [3] [µM]
CCCCCCNC(=O)Oc1cccc(-c2ccc(C(C)CO)cc2F)c1 (racemic)	0.003	> 100	–
CCCCCCNC(=O)Oc1cccc(-c2ccc(C(C)C(=O)O)cc2Cl)c1 (racemic)	0.023	0.73	0.009
CC(C(=O)O)c1ccc(-c2cccc(OC(=O)Nc3ccccc3)c2)c(F)c1 (racemic)	41.2	2.7	0.27
CCNC(=O)Oc1cccc(-c2ccc(C(C)C(=O)O)cc2F)c1 (racemic)	> 100	> 100	2.1
CCCCNC(=O)Oc1cccc(-c2ccc(C(C)C(=O)O)cc2F)c1 (racemic)	–	> 100	–
CC(C(=O)O)c1ccc(-c2cccc(OC(=O)NCc3ccccc3)c2)c(F)c1 (racemic)	–	> 100	–
CCCCCCNC(=O)Oc1ccccc1-c1ccc(C(C)C(=O)O)cc1F (racemic)	–	> 100	–
CCCCCCNC(=O)Oc1cccc(-c2ccc(C(C)C(=O)O)cc2C)c1 (racemic)	0.01	1.4	0.011
CC(C(=O)O)c1ccc(-c2cccc(OC(=O)NCCCCc3ccccc3)c2)c(F)c1 (racemic)	–	> 100	–
CC(C(=O)O)c1ccc(-c2cccc(OC(=O)NC3CC3)c2)c(F)c1 (racemic)	> 100	74.3	5.4
CC(C(=O)O)c1ccc(-c2cccc(OC(=O)NCCc3ccccc3)c2)c(F)c1 (racemic)	–	> 100	–
CCCCCCNC(=O)Oc1cccc(-c2ccc(C(C)C(=O)O)cc2N)c1 (racemic)	0.049	12.1	0.22
CCCCCCNC(=O)Oc1ccc(-c2ccc(C(C)C(=O)O)cc2F)cc1 (racemic)	0.068	> 100	> 100
CCCCCCNC(=O)Oc1cccc(-c2ccc(C(C)C(=O)O)cc2)c1 (racemic)	0.003	0.69	0.054
CC(C)CNC(=O)Oc1cccc(-c2ccc(C(C)C(=O)O)cc2F)c1 (racemic)	4.1	> 100	–
CCCCCCNC(=O)Nc1cccc(-c2ccc(C(C)C(=O)O)cc2F)c1 (racemic)	88.4	0.56	0.014

Compound	IC50 [1] [µM]	IC50 [2] [µM]	IC50 [3] [µM]
CCCCCCNC(=O)Oc1cccc(-c2ccc(C(C)C(=O)O)cc2O)c1 (racemic)	0.035	13	0.65
CCCCCCNC(=O)Oc1cccc(-c2ccc(C(=O)O)cc2F)c1	0.085	> 100	> 100
CCCCCCNC(=O)Oc1cccc(-c2ccc(C(C)C(=O)O)cc2C(F)(F)F)c1 (racemic)	0.005	0.2	0.01
CC(C(=O)O)c1ccc(-c2cccc(OC(=O)NC3CCC3)c2)c(F)c1 (racemic)	48.7	> 100	0.72
CCCNC(=O)Oc1cccc(-c2ccc(C(C)C(=O)O)cc2F)c1 (racemic)	> 100	> 100	1.65
CCCCCCCCNC(=O)Oc1cccc(-c2ccc(C(C)C(=O)O)cc2F)c1 (racemic)	0.003	–	–
CC(C(=O)O)c1ccc(-c2cccc(OC(=O)NC3CCCCC3)c2)c(F)c1 (racemic)	–	> 100	–
CC(C(=O)O)c1ccc(-c2ccccc2)c(F)c1 (stereo unspecified) [FLURBIPROFEN]	> 100	–	–
CCCCCCNC(=O)Oc1cccc(-c2ccc(C(C)C(=O)OC)cc2F)c1 (racemic)	0.052	> 100	> 100
CCCCCCNC(=O)Oc1cccc(-c2ccc(C(C)C(=O)O)cc2[N+](=O)[O-])c1 (racemic)	0.009	0.93	0.13
CC(C)NC(=O)Oc1cccc(-c2ccc(C(C)C(=O)O)cc2F)c1 (racemic)	> 100	> 100	3.9
CC(C(=O)O)c1ccc(-c2cccc(OC(=O)NC3CCCC3)c2)c(F)c1 (racemic)	–	> 100	–
CC(C(=O)O)c1ccc(-c2cccc(OC(=O)NCC3CCCCC3)c2)c(F)c1 (racemic)	–	> 100	–
CCCCCCNC(=O)Oc1cccc(-c2ccc([C@@H](C)C(=O)O)cc2F)c1	–	–	4
CCCCCCNC(=O)Oc1cccc(-c2ccc(C)cc2F)c1	0.026	> 100	> 100
NC(=O)c1cccc(-c2cccc(OC(=O)NC3CCCCC3)c2)c1 [URB-597]	–	> 100	> 100
